Experimental data as given in paper PMC8213057, “Targeting ALK2: An Open Science Approach to Developing Therapeutics for the Treatment of Diffuse Intrinsic Pontine Glioma” (Journal of Medicinal Chemistry, 2020).
“And” between values parts separate entries of the source, which are not always exact repeats. Equal entries are not always repeated.

Assays:
[1] = system: TAOK1
[2] = biological target: T1, ALK5/TGFBR1 (Homo sapiens, UniProt P36897); test: 375-member kinase panel; assay type: biochemical; settings: Run 1, Run 2; for % enzyme activity: 1 μM; for remaining activity at 1 µM: read-out: % enzyme activity, 1 μM
T1 construct: purchased Reaction Biology Corporation
T1 sequence (P36897 34-503): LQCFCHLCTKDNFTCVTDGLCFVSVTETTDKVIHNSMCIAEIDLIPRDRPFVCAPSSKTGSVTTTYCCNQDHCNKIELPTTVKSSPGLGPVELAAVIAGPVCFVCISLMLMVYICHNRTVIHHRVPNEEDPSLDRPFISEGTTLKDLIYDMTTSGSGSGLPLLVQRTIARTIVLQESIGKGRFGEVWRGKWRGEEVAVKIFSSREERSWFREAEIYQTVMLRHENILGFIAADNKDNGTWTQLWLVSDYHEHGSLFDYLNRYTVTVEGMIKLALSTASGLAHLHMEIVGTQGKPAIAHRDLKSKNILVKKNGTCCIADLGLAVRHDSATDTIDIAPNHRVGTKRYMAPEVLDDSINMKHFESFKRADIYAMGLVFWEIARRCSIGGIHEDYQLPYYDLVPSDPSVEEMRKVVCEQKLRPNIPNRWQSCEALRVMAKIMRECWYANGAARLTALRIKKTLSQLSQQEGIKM

[3] = biological target: T2, SIK2 (Homo sapiens, UniProt Q9H0K1); test: 375-member kinase panel; assay type: biochemical; settings: Run 1, Run 2; for % enzyme activity: 1 μM; for remaining activity at 1 µM: read-out: % enzyme activity, 1 μM
T2 construct: purchased Reaction Biology Corporation

[4] = biological target: CAMKK1 (Homo sapiens, UniProt Q8N5S9); settings: 1 μM; Run 1, Run 2
[5] = biological target: MAPKAPK3 (Homo sapiens, UniProt Q16644); settings: 1 μM; Run 1, Run 2
[6] = biological target: T3, MEK3 (Homo sapiens, UniProt P46734); settings: 1 μM; Run 1, Run 2
T3 sequence (P46734 1-347): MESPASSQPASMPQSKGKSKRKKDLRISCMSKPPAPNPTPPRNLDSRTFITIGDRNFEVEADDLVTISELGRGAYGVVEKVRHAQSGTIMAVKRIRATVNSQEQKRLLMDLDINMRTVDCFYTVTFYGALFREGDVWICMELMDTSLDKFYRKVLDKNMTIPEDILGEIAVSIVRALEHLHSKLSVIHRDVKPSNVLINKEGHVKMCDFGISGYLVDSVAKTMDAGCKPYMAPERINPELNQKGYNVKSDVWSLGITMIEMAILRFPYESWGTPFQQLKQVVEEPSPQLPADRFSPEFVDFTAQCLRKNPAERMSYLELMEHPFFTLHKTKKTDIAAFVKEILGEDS

[7] = biological target: PAK6 (Homo sapiens, UniProt Q9NQU5); settings: 1 μM; Run 1, Run 2
[8] = biological target: STK25/YSK1 (Homo sapiens, UniProt O00506); settings: 1 μM; Run 1, Run 2
[9] = biological target: CK1g1 (Homo sapiens, UniProt Q9HCP0); test: biochemical; settings: read-out: % enzyme activity, 1 μM; Run 1, Run 2
[10] = biological target: T4, ERK7/MAPK15 (Homo sapiens, UniProt Q8TD08); test: biochemical; settings: read-out: % enzyme activity, 1 μM; Run 1, Run 2
T4 sequence (Q8TD08 1-544): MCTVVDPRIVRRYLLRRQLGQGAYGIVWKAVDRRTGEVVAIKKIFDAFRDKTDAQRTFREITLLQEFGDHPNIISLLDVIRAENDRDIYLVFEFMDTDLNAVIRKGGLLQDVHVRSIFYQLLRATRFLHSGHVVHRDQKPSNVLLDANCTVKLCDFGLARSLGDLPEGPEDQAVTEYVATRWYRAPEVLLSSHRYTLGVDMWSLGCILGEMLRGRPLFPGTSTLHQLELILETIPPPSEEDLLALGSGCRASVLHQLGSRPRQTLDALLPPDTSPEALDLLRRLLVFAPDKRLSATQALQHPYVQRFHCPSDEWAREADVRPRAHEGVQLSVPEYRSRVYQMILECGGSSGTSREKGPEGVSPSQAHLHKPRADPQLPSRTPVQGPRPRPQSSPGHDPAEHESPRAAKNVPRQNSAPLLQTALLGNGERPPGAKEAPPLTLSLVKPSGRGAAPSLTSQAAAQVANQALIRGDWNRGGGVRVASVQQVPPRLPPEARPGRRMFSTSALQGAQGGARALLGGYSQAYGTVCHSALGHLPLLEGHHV

[11] = biological target: T5, GRK7 (Homo sapiens, UniProt Q8WTQ7); test: biochemical; settings: read-out: % enzyme activity, 1 μM; Run 1, Run 2
T5 sequence (Q8WTQ7 1-553): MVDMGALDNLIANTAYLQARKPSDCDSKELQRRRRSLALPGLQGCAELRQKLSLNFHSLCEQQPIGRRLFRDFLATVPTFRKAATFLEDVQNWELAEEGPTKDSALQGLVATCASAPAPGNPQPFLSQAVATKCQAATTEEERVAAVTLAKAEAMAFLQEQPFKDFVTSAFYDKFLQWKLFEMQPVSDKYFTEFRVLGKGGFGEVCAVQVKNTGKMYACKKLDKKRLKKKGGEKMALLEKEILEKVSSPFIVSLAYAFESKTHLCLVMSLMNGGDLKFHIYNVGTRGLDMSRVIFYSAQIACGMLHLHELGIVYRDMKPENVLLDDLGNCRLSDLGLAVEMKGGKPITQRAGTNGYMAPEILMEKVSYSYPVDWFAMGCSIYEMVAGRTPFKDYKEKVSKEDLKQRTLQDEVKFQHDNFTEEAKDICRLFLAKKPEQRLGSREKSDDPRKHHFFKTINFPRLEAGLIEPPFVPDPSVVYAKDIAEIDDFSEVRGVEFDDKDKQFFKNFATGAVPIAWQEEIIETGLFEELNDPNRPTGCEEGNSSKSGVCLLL

[12] = biological target: T6, NEK2 (Homo sapiens, UniProt P51955); test: biochemical; settings: read-out: % enzyme activity, 1 μM; Run 1, Run 2
T6 sequence (P51955 1-445): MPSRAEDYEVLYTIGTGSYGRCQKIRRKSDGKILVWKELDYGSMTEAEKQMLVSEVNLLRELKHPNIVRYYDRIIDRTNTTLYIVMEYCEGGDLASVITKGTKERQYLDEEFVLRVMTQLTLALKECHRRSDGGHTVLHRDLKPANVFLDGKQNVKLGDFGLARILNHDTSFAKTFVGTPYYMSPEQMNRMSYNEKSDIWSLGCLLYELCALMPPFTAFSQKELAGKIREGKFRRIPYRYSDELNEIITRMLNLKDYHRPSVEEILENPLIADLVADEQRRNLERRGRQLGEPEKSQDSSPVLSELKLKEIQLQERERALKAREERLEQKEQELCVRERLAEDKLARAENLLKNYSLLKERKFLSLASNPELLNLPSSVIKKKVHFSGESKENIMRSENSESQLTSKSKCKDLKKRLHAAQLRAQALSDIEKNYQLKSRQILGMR

T2 sequence (Q9H0K1 whole entry): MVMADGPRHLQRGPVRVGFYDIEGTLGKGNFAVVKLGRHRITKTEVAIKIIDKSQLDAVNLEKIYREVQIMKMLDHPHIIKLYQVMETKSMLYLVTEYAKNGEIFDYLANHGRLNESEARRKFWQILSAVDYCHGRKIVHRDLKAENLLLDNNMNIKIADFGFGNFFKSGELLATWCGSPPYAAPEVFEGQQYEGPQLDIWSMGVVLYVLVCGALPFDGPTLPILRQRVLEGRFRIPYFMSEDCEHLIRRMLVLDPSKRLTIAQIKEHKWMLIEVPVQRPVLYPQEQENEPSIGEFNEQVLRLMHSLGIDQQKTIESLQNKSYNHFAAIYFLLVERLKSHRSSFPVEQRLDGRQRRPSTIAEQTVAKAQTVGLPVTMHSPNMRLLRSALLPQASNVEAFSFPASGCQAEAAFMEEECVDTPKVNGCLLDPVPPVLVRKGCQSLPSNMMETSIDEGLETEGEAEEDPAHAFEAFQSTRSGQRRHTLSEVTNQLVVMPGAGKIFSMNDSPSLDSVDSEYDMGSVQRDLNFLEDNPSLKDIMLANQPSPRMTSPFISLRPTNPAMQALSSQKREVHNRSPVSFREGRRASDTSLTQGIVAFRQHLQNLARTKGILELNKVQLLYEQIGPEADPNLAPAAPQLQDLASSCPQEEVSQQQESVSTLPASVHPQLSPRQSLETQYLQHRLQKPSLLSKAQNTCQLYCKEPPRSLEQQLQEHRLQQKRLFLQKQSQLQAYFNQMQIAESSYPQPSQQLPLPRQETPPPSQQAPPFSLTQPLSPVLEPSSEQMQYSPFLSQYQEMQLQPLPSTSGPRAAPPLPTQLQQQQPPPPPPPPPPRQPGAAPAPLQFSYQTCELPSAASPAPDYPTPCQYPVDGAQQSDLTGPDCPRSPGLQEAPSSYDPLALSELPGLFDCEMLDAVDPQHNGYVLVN
Chain of STK25/YSK1 (O00506 whole entry): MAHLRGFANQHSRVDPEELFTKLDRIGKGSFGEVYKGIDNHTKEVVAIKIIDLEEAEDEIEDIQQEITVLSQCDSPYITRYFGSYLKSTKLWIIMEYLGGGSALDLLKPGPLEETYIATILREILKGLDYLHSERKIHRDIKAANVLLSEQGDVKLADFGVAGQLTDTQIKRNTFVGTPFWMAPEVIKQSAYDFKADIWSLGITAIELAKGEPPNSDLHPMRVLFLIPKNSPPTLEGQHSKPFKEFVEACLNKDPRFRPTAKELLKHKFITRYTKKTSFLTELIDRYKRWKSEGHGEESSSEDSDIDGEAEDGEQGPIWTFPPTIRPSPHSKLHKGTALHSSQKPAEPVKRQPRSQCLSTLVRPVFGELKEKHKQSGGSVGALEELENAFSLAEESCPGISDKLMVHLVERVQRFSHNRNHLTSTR
Chain of CAMKK1 (Q8N5S9 whole entry): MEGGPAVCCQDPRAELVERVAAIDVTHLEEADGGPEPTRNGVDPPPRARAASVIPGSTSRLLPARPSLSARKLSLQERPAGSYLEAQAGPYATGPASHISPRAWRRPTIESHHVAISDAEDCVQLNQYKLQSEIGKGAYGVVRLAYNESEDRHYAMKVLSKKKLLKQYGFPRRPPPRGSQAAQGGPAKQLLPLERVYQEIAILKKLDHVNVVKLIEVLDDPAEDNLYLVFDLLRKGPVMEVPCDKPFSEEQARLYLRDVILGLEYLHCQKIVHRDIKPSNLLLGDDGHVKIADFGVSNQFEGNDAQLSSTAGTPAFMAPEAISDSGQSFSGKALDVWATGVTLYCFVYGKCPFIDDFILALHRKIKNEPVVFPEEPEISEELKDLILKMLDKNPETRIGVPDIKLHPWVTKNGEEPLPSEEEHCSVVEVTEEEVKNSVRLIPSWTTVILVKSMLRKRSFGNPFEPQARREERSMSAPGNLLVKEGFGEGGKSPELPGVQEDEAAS
Chain of MAPKAPK3 (Q16644 whole entry): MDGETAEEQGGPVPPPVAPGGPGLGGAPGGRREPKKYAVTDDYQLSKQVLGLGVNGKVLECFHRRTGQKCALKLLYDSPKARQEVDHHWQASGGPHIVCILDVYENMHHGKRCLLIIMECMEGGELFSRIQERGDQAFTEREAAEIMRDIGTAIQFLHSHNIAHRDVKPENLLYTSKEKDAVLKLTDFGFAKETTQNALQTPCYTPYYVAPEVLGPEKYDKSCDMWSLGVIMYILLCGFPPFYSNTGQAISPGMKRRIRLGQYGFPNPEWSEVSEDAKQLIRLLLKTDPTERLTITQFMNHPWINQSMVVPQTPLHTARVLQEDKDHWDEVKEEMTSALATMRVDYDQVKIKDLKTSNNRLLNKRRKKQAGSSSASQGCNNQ
Chain of CK1g1 (Q9HCP0 whole entry): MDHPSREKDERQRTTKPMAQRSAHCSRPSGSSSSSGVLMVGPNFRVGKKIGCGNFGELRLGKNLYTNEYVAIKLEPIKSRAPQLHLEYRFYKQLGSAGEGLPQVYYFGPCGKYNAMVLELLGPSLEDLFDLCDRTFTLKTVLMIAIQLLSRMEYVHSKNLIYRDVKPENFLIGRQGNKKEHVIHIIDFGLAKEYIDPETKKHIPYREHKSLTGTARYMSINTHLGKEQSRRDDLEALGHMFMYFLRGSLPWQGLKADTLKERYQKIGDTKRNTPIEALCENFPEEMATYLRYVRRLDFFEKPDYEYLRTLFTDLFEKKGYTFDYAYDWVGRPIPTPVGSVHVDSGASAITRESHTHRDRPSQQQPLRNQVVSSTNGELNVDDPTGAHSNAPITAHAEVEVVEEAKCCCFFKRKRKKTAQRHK
Chain of PAK6 (Q9NQU5 whole entry): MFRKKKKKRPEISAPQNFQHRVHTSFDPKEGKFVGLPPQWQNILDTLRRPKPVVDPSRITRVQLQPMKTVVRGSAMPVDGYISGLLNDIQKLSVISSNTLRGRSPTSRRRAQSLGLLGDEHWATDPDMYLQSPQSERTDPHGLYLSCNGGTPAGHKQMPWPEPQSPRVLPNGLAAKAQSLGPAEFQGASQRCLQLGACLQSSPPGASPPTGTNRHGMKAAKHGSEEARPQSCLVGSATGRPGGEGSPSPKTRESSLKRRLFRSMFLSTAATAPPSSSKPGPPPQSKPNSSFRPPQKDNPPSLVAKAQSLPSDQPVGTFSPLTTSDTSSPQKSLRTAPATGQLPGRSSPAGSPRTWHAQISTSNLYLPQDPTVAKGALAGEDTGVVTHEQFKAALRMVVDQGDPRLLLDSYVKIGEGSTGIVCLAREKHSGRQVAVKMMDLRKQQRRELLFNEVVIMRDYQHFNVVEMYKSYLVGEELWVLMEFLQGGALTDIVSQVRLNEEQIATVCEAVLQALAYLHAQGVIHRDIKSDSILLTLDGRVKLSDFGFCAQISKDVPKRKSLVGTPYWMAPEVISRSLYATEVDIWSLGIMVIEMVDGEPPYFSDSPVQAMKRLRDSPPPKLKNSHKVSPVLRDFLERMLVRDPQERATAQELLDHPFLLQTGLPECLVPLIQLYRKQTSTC

Row | Compound | % enzyme activity at 1 μM [1] | % enzyme activity [2] [%] | remaining activity at 1 µM [2] [%] | % enzyme activity [3] [%] | remaining activity at 1 µM [3] [%] | % enzyme activity [4] [%] | % enzyme activity [5] [%] | % enzyme activity [6] [%] | % enzyme activity [7] [%] | % enzyme activity [8] [%] | remaining activity at 1 µM [9] [%] | remaining activity at 1 µM [10] [%] | remaining activity at 1 µM [11] [%] | remaining activity at 1 µM [12] [%]
1 | COc1cc(-c2cncc(-c3ccc(N4CCN(C)CC4)cc3)c2C)cc(F)c1C(N)=O [Compound 26a, 2-Fluoro-6-methoxy-4-(4-methyl-5-(4-(4-methylpiperazin-1-yl)phenyl)pyridin-3-yl)benzamide] | 60.3% and 60.2% | 82.28 | 82.5 | 30.68 | 32 | 92.05 | 99.20 | 100.94 | 97.22 | 94.98 | 57.7 | 86.8 | 95.1 | 92.3
2 | COc1cc(-c2cncc(-c3ccc(N4C[C@@H](C)N(C)[C@@H](C)C4)cc3)c2C)cc(F)c1C(N)=O [Compound 26c, 2-Fluoro-6-methoxy-4-(4-methyl-5-(4-((3R,5S)-3,4,5-trimethylpiperazin-1-yl)phenyl)pyridin-3-yl)benzamide] | 62.2% and 60.6% | 96.60 | 97.2 | 43.50 | 43.9 | 93.52 | 96.39 | 101.33 | 95.67 | 94.06 | 71.7 | 98.3 | 91.8 | 98.5
